Experiments:
[1] = Volatility of UV absorbers: Thermogravimetric Analysis (TGA) T-10% values; type: physicochemical; conditions: for T-10% (TGA, temperature required for 10% of the material to volatilize): Thermogravimetric Analysis
Description: One approach that has been taken to reduce the loss of absorbers from polymeric substrates has been to increase their molecular weight, either by using an absorber with attached high molecular weight groups, or by adding a group which will bind two or more absorbing nuclei in the same molecule, thus increasing molecular weight. U.S. Pat. No. 4,278,589 provides an example of the former approach, and describes benzotriazoles with large groups attached at the 3- and 5-positions. Of the latter approach, benzophenones, benzotriazoles and other molecules have been dimerized to reduce volatility. U.S. Pat. Nos. 5,108,835 and 4,948,666 describe articles with capstock layers stabilized by 2-hydroxyphenylbenzotriazoles which are bridged by various groups. One structure encompassed by the description is a 2-hydroxyphenylbenzotriazole bridged by a methylene group in the 3-position. These materials have relatively low volatility, as measured by the high temperature required for 10% of the materials to volatilize during Thermogravimetric Analysis. This temperature, known as the TGA T-10% value, is approximately 365° C. for the methylenebis{(5-tert-octyl-2-hydroxyphenyl)benzotriazole} known commercially as LA-31, Mixxim BB-100 or Tinuvin 360 (supplied by Asahi Denka, Fairmount Chemical and Ciba Specialty Chemicals, respectively), versus a TGA T-10% value of 245° C. for the non-dimerized (5-tert-octyl-2-hydroxyphenyl)benzotriazole known commercially as CYASORB® UV-5411. Also described have been 2,4-dihydroxybenzophenones which are dimerized by attachment through the 4-oxygen by an ether bond to two carbons of an aliphatic group. Compounds of this type have been described in U.S. Pat. Nos. 3,580,927 and 3,666,713 and CZ Appl. 135,115, JP Sho 47-48888, JP Sho 44-26456 and GB 1, 296,240. Capstock articles stabilized by some of these compounds, and a method for preparing the same are described in U.S. Pat. Nos. 5,445,872 and 5,306,456. Descriptions of benzotriazoles and benzophenones bridged by attachment of other groups may be found in U.S. Pat. Nos. 5,589,529 and 4,859,726 (for benzotriazoles) and JP Sho 57-12643 (for benzophenones). Many of the compounds described above, while solving the problem of volatility, have other limitations, including low solubility and high initial color when processed into the plastic substrate.
Volatility of UV Absorbers
Thermogravimetric Analysis (TGA) T-10% Values

[2] = Weathering resistance of polycarbonate plaques, 12-Month Florida Data; conditions: for % Weathering Resistance: 0.35% additive in Lexan 121 PC, 12-Month Florida Data, [1-YI(additive)YI of Blank] × 100
Description: The performance of the additives was evaluated in comparison to the control (no stabilizer) by compounding into polycarbonate and studying the properties of the compounded plaques. Polycarbonate plaques were prepared by: (1) dry blending the additives at 0.35 weight % with GE Lexan 121-112 polycarbonate (2) extruding the blend in a Haake torque rheometer base using a 0.75 inch 25:1 single screw extruder −4 zone, single pass, at 50-65 RPM speed, with zone 1, zone 2, zone 3, and zone 4 temperatures at 265, 265, 270 and 275° C., respectively, (3) pulling through a water bath, (4) drying, (5) pelletizing, (6) redrying at 120° C. for 4-48 hours in a forced air oven, (7) injection molding in an Arburg ‘Allrounder’ hydraulic injection molder (2×2.5 0.100″ plaques). Temperatures used were as follows: nozzle, 275° C., nozzle side, 280° C., middle, 275° C., feed, 266° C., mold, 95° C. The plaques were irradiated in a Xenon Arc Weatherometer as described by ASTM G-26 Standard using Test Method B with alternate exposure to light and darkness and an intermittent exposure to water spray maintaining an atmosphere temperature of 63±3° C. and a relative humidity of 30±5% (Miami, Fla. conditions). Color (YI) was determined with a Macbeth Color Eye […] under Lab conditions with illuminate C, 2° observer, specular component excluded, and UV component included. Hydrolytic testing was performed by heating plaques with water at 120° C. for 6 hours in an All American Electric Pressure Sterilizer, Model No. 25×, measuring YI before and after treatment.
% Weathering Resistance of Plaques (0.35% Additive in Lexan® 121 PC)

[3] = Capstock weathering: Delta YI after xenon-arc weatherometer exposure; conditions: 7% in Capstock PC-Lexan 105
Description: The performance of the compounds was evaluated in comparison to the control (no stabilizer) in a polycarbonate thin film laminated to an unstabilized polycarbonate plaque. The films were prepared by (1) dry blending the additives at 7 wt. % with Lexan 105 virgin flake and 0.1% Mark 2112 phosphite, (2) extruding the blend in a Haake torque rheometer base equipped with a 0.75 inch 25:1 single mixing screw extruder −4 zone, single pass at 55-65 rpm speed, with zone 1, zone 2, zone 3, and zone 4 temperatures at 246, 265, 295, and 304° C., respectively, (3) pulling through a water bath, (4) drying, (5) pelletizing, (6) redrying at 120° C. for 4-48 hours in a forced air oven, and (7) compression molding from compounded pellets into 2 mil films at 300° C. using a 30 second dwell hold without pressure, and a 30-second dwell hold with 35 kpsi pressure. […] The laminated sample plaques were exposed in the xenon-arc weatherometer as determined by ASTM G-26 Standard using Test Method B with alternate exposure to light and darkness and an intermittent exposure to water spray maintaining an atmosphere temperature of 63±3° C. and a relative humidity of 30±5% (Miami, Fla. conditions). Color (YI) was determined with a Macbeth Color Eye Colorimeter under Lab conditions with illuminate C, 2° observer, specular component excluded, and UV component included. […]

[4] = Solubility of compounds in organic solvents; conditions: 25° C.

CC(C)(C)CC(C)(C)c1ccc(O)c(-n2nc3ccccc3n2)c1 [Compound A, 2-(2′-hydroxy-5′-(1,1,3,3-tetramethylbutyl)phenyl)benzotriazole]
TGA T-10% value [1]: 245 °C | T-10% (TGA, temperature required for 10% of the material to volatilize) [1]: 245 °C

O=C(c1ccccc1)c1ccc(OCCO)cc1O [Compound B, 2-hydroxy-4-(hydroxyethoxy)benzophenone]
T-10% (TGA, temperature required for 10% of the material to volatilize) [1]: 257 °C

CC(C)(c1ccccc1)c1cc(-n2nc3ccccc3n2)c(O)c(C(C)(C)c2ccccc2)c1 [Compound C, 2-(3′,5′-bis(α,α-dimethylbenzyl)-2′hydroxyphenyl)benzotriazole]
T-10% (TGA, temperature required for 10% of the material to volatilize) [1]: 312 °C | % Weathering Resistance [2]: 71%

O=C(OCCOc1ccc(C(=O)c2ccccc2)c(O)c1)OCCOc1ccc(C(=O)c2ccccc2)c(O)c1 [Compound D, {2-(3′-hydroxy-4′-benzoylphenoxy)ethyl}carbonate]
Volatility (in words) ([1]; TGA, compared with non-dimerized counterpart): lower volatility than its non-dimerized counterpart | T-10% (TGA, temperature required for 10% of the material to volatilize) [1]: 350 °C | % Weathering Resistance [2]: 71% | Stability imparted to the polycarbonate system (in words) ([2]; 0.35% in Lexan 121 PC): excellent stability | Stability imparted (in words) [3]: excellent stability | Solubility in 2-Butanone [4]: 2.69 g/100 g solvent | Solubility in Toluene [4]: 1.26 g/100 g solvent | Solubility characteristics (in words) ([4]; organic solvents): excellent solubility characteristics

O=C(c1ccccc1)c1ccc(OCCCCCCOc2ccc(C(=O)c3ccccc3)c(O)c2)cc1O [Compound E, 1,6-bis(3′hydroxy-4′-benzoylphenoxy)hexane]
T-10% (TGA, temperature required for 10% of the material to volatilize) [1]: 357 °C | % Weathering Resistance [2]: 69% | Solubility in 2-Butanone [4]: 0.37 g/100 g solvent | Solubility in Toluene [4]: 0.52 g/100 g solvent

CC(C)(C)CC(C)(C)c1cc(Cc2cc(C(C)(C)CC(C)(C)C)cc(-n3nc4ccccc4n3)c2O)c(O)c(-n2nc3ccccc3n2)c1 [Compound F]
TGA T-10% value [1]: approximately 365 °C | % Weathering Resistance [2]: 59%

Reference: US6537670B1, “Bis(alkyleneoxybenzophenone) ultraviolet light absorbers” (Cytec Technology Corp., priority 2000, dated 2003)
